Here are results for 22 compounds from patent publication US6403626B1, “Benzimidazole derivatives” (Synaptic Pharmaceutical Corporation, priority 1994, dated 2002).

The target of data set [1] is T1, α1A Human Adrenergic Receptor (Homo sapiens, UniProt P25100).
T1 construct: expressed in transfected cells; host or cells: LM(tk-) cells
T1 sequence (P25100 1-572): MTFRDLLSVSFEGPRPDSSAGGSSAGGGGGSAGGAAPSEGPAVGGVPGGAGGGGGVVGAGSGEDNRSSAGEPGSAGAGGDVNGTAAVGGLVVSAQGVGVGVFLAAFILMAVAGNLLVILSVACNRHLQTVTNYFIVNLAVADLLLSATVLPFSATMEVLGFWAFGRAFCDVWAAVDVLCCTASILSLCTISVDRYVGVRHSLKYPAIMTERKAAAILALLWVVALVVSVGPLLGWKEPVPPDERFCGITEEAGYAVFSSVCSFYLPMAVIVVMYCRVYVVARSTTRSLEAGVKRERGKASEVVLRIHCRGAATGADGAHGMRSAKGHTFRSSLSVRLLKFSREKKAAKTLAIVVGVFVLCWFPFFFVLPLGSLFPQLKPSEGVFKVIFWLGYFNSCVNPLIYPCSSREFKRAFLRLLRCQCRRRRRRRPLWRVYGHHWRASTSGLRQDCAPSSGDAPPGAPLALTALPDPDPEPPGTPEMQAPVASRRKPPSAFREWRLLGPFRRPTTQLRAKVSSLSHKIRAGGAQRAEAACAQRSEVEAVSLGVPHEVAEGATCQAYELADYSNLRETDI
The experiment in a line: Equilibrium competition binding, [3H] prazosin, membranes of transfected LM(tk-) cells.

Data set [2] concerns the target T2, α1C Human Adrenergic Receptor (Homo sapiens, UniProt P35348).
T2 construct: expressed in transfected cells; host or cells: LM(tk-) cells
T2 sequence (P35348 1-466): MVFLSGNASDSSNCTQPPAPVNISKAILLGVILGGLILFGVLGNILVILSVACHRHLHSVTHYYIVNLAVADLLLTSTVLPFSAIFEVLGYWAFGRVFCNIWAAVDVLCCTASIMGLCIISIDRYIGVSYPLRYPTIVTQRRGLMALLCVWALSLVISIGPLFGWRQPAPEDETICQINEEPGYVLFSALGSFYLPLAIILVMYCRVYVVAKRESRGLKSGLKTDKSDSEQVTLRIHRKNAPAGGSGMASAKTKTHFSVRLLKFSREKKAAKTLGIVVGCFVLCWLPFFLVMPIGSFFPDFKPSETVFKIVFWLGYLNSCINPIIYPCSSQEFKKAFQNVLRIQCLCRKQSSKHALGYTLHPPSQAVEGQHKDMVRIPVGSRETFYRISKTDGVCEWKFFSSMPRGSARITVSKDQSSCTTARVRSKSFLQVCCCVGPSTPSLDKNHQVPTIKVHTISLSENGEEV
The data set is described as above.

Data set [3] addresses α2C Human Adrenergic Receptor (Homo sapiens, UniProt P18825). The experiment in a line: Equilibrium competition binding, [3H] rauwolscine, membranes of transfected LM(tk-) cells.
For data set [4], the system named is Adult rhesus monkeys (Macaca mulatta). The data set is described as follows: Sedation and muscle relaxation rating. The format is in vivo. The note with it: subcutaneous, cumulative dosing 0.1-3.2 mg/kg, versus clonidine 0.032-1.0 mg/kg. The source says: Subjects. Adult rhesus monkeys (Macaca mulatta) of either sex were housed individually with free access to water. They were fed fresh fruit weekly and approximately 40 biscuits (Purina Monkey Chow) daily.
Procedure. Monkeys were trained to receive subcutaneous injections while in their home cages; they were rated by one non-blind observer familiar with the individual subjects, according to modified rating scales for sedation and muscle relaxation (Table 2); Separate scales describe increasing degrees of sedation (as measured by responsiveness to stimuli) and muscle relaxation (as observed through changes in posture). Animals were injected in a cumulative dosing procedure with a 30 minute interinjection interval; observer rating on both scales took place approximately 15 minutes after each injection.
Design. […] The same three monkeys were typically studied under each se of conditions.

Setting [5] is: cloned human receptor, [3H] prazosin, read-out: pKi Alpha-1 C (converted).
[6] abbreviates: cloned human receptor, [3H] prazosin.
Where [7] appears, read: cloned human receptor, [3H] prazosin, read-out: pKi Alpha-1 A (converted).

Where two headings read alike, the source gives them in different places.

Sequence of α2C Human Adrenergic Receptor (P18825 whole entry, looked up): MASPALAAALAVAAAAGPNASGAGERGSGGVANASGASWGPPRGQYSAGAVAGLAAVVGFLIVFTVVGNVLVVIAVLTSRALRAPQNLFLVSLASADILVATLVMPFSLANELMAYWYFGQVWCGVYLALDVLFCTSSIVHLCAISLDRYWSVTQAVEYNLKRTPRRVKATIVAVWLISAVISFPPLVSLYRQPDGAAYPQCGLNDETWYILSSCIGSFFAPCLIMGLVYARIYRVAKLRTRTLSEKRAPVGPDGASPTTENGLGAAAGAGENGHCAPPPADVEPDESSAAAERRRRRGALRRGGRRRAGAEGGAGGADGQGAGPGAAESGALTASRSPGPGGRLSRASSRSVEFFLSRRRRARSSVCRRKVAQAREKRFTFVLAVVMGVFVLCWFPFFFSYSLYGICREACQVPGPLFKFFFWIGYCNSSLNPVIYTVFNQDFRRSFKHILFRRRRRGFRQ

On to `Cn1cnc2c(Br)c(NC3=NCCN3)ccc21` [Example 10, 1-Methyl-4-bromo-5-(2-imidazolin-2-ylamino)Benzimidazole], for which the melting point – broadly, the temperature, or range, at which the solid turns liquid – lay in the range of 237 to 238 °C. This compound displayed a Ki in data set [1] of 617 nM. The Ki in data set [2] (setting [5]) is 851 nM.
Take `CCCCc1c(NC2=NCCN2)ccc2nc[nH]c12` [Example 8, 4-n-Butyl-5-(2-imidazolin-2-ylamino)Benzimidazole]: the Ki is 676 nM in data set [1] and 2000 nM in data set [2] (setting [5]).
The like results for `Clc1c(NC2=NCCN2)ccc2nc[nH]c12` [Example 3, 4-Chloro-5-(2-imidazolin-2-ylamino)Benzimidazole] were, in that order, 537 nM and 1910 nM.
For `CCCc1c(NC2=NCCN2)ccc2nc[nH]c12` [Example 7, 4-n-Propyl-5-(2-imidazolin-2-ylamino)Benzimidazole], in that order: 269 nM and 2000 nM.
For `Ic1c(NC2=NCCN2)ccc2nc[nH]c12` [Example 5, 4-Iodo-5-(2-imidazolin-2-ylamino)Benzimidazole], in that order: 537 nM and 2240 nM.
As to `Cc1nc2ccc(NC3=NCCN3)c(Br)c2[nH]1` [Example 42, 2-Methyl-4-bromo-5-(2-imidazolin-2-ylamino)Benzimidazole], the Ki was 1620 nM in data set [1] and 8130 nM in data set [2] (setting [5]).
`CC(C)(C)c1nc2ccc(NC3=NCCN3)c(Br)c2[nH]1` [Example 45, 2-tert-Butyl-4-bromo-5-(2-imidazolin-2-ylamino)Benzimidazole]: the Ki in data set [1] is 4570 nM; in data set [2] (setting [5]) it was 2190 nM.
Regarding `COc1ccc(Cn2cnc3c(Br)c(NC4=NCCN4)ccc32)cc1` [Example 36, 1-(4-Methoxybenzyl)-4-bromo-5-(2-imidazolin-2-ylamino)Benzimidazole], the values for the Ki in data set [1] and in data set [2] were 813 nM and 6460 nM, respectively.
Regarding `Cn1cnc2ccc(NC3=NCCN3)c(Br)c21` [Example 12, 3-Methyl-4-bromo-5-(imidazolin-2-ylamino)Benzimidazole], the “pKi Alpha-1 A” value in data set [1] (setting [6]) is 7.02. Moreover, the “pKi Alpha-1 C” value in data set [2] (setting [6]) stood at 6.46.
For the compound `FC(F)(F)c1nc2ccc(NC3=NCCN3)c(Br)c2[nH]1` [Example 46, 2-Trifluoromethyl-4-bromo-5-(2-imidazolin-2-ylamino)Benzimidazole], the Ki in data set [1] is 7080 nM; in data set [3] it was 1480 nM; in data set [2] (setting [5]) it was 10700 nM.
`Cn1cnc2cc(NC3=NCCN3)ccc21` [Example 9, 1-Methyl-5-(2-imidazolin-2-ylamino)Benzimidazole]: the Ki in data set [1] was 2750 nM; in data set [2] (setting [5]) it was 6760 nM.
For `Brc1c(NC2=NCCN2)ccc2nc[nH]c12` [Example 2, 4-Bromo-5-(2-imidazolin-2-ylamino)Benzimidazole], the values for the Ki in data set [1] and in data set [2] were 955 nM and 1700 nM, respectively.
Consider `CCc1nc2ccc(NC3=NCCN3)c(Br)c2[nH]1` [Example 43, 2-Ethyl-4-bromo-5-(2-imidazolin-2-ylamino)Benzimidazole], for which the Ki in data set [1] was 1740 nM; in data set [2] (setting [5]) it was 2140 nM.
For `OCCn1cnc2c(Br)c(NC3=NCCN3)ccc21` [Example 38, 1-(2-Hydroxyethyl)-4-bromo-5-(2-imidazolin-2-ylamino)Benzimidazole], the values for the Ki in data set [1] and in data set [2] were 7240 nM and 6760 nM, respectively.
`Cc1c(N=C2NCCN2)ccc2[nH]cnc12` [Example 4, 4-Methyl-5-(2-imidazolin-2-ylamino)Benzimidazole]: the values for the Ki in data set [1] (setting [7]) and in data set [2] (setting [5]) were 603 nM and 724 nM, respectively. Also, the sedation entry in data set [4] was “decreased sedation relative to the reference compound, clonidine”.
`Clc1cc(NC2=NCCN2)cc2[nH]cnc12` [Example 53, 7-Chloro-5-(2-imidazolin-2-ylamino)Benzimidazole]: the figures for the Ki in data set [1] and in data set [2] (setting [5]) were 309 nM and 1000 nM, respectively.
As to `CCCCc1cc(NC2=NCCN2)cc2[nH]cnc12` [Example 56, 7-Butyl-5-(2-imidazolin-2-ylamino)Benzimidazole], the Ki is 1260 nM in data set [1] and 589 nM in data set [2] (setting [5]).
With `Clc1cc(NC2=NCCN2)c(Br)c2[nH]cnc12` [Example 60, 4-Bromo-7-chloro-5-(2-imidazolin-2-ylamino)Benzimidazole], the figures for the Ki in data set [1] and in data set [2] (setting [5]) were 224 nM and 479 nM, respectively.
The like results for `CC(C)c1nc2ccc(NC3=NCCN3)c(Br)c2[nH]1` [Example 44, 2-Isopropyl-4-bromo-5-(2-imidazolin-2-ylamino)Benzimidazole] were, in that order, 2040 nM and 3090 nM.
As to `Brc1cc2nc[nH]c2c(Br)c1NC1=NCCN1` [Example 50, 4,6-Dibromo-5-(2-imidazolin-2-ylamino)Benzimidazole], the values for the Ki in data set [1] and in data set [2] (setting [5]) were 35.5 nM and 776 nM, respectively.
As to `c1nc2ccc(NC3=NCCN3)cc2[nH]1` [Example 1, 5-(2-Imidazolin-2-ylamino)Benzimidazole], the Ki in data set [1] is 6760 nM; in data set [2] (setting [5]), 5250 nM.
Turning to `Brc1c(NC2=NCCN2)ccc2nc(C(c3ccccc3)c3ccccc3)[nH]c12` [Example 48, 2-Diphenylmethyl-4-bromo-5-(2-imidazolin-2-ylamino)Benzimidazole], the Ki in data set [1] (setting [7]) is 1230 nM; in data set [2] (setting [5]), 120 nM.
